Earlier results as cited in patent US20110008412A1, “Oral Formulations for 5-HT-Receptor Agonists, Uses and Methods of Treatment Employing The Same” (CIPLA LIMITED, priority 2003, published 2011).

- half-life (after subcutaneous and oral application): about 2 hours
- bioavailability (injected subcutaneously): 96%
SMILES: CNS(=O)(=O)Cc1ccc2[nH]cc(CCN(C)C)c2c1 [sumatriptan, 3-[2-(dimethylamino)ethyl]-N-methyl-1H-indole-5-methanesulfonamide]
